Laboratory results from the RepoRT retention time repository.

Assay: HILIC, Waters Atlantis Premier BEH Z-HILIC, 100 × 2.1 mm, 1.7 µm, 40 °C, 0.15 mL/min, estimated dead time 1.5 min; A: water + 20 mM ammonium carbonate + 5 µM medronic acid; B: 10% water + 90% acetonitrile + 2 mM ammonium carbonate + 0.5 µM medronic acid; gradient (min/%B) 0/100 18/60 18.1/20 21.5/20 22/100 23.5/100 25.5/100
Settings: stereoisomer not certain

Structure (SMILES) | LC retention time
CC(O)C(=O)O (configuration not stated) [Lactic Acid] | 3.35 min
CCC(C)C(N)C(=O)O (configuration not stated) [Isoleucine] | 6.4 min
Cc1cc2nc3c(=O)[nH]c(=O)nc-3n(CC(O)C(O)C(O)COP(=O)(O)OP(=O)(O)OCC3OC(n4cnc5c(N)ncnc54)C(O)C3O)c2cc1C (configuration not stated) [FAD] | 7.67 min
Nc1ncnc2c1ncn2C1OC(CO)C(O)C1O (configuration not stated) [Adenosine] | 3.63 min
O=C(O)CCC(O)C(=O)O (configuration not stated) [2-hydroxy glutaric acid] | 8.86 min
O=C(O)CCCCC1SCC2NC(=O)NC21 (configuration not stated) [Biotin] | 4.67 min
OCC1OC(O)C(O)C(O)C1O (configuration not stated) [Hexose] | 6.98 min
CC(=O)SCCNC(=O)CCNC(=O)C(O)C(C)(C)COP(=O)(O)OP(=O)(O)OCC1OC(n2cnc3c(N)ncnc32)C(O)C1OP(=O)(O)O (configuration not stated) [Acetyl-CoA] | 9.69 min
O=C(CO)C(O)C(O)C(O)COP(=O)(O)O (configuration not stated) [Fructose 6-phosphate] | 11.3 min
O=C(O)CC(C(=O)O)C(O)C(=O)O (configuration not stated) [Isocitric acid] | 14 min
O=C(CO)COP(=O)(O)O [Triose phosphate] | 10.4 min
O=C1CC(C(=O)O)NC(=O)N1 (configuration not stated) [dihydroorotic acid] | 4.08 min
NC(=O)c1ccc[n+](C2OC(COP(=O)(O)OP(=O)(O)OCC3OC(n4cnc5c(N)ncnc54)C(OP(=O)(O)O)C3O)C(O)C2O)c1 (configuration not stated) [NADP] | 13.4 min
O=C(O)CCC(=O)C(=O)O [2-Oxoglutaric acid] | 8.86 min
O=C(O)CCC(=O)O [Succinic Acid] | 8.9 min
CCC(=O)OC(CC(=O)[O-])C[N+](C)(C)C (configuration not stated) [carnitine-C3] | 6.46 min

Structure (SMILES) | LC retention time
CC(=O)NC1C(OP(=O)(O)OP(=O)(O)OCC2OC(n3ccc(=O)[nH]c3=O)C(O)C2O)OC(CO)C(O)C1O (configuration not stated) [UDP-GlcNAc] | 9.95 min
O=C(O)C(CO)OP(=O)(O)O (configuration not stated) [Phosphoglyceric acid A] | 12.8 min
Nc1ncnc2c1ncn2C1OC(COP(=O)(O)OP(=O)(O)O)C(O)C1O (configuration not stated) [ADP] | 11.6 min
NC(CCC(=O)O)C(=O)O (configuration not stated) [Glutamic acid] | 9.81 min
Nc1ncnc2c1ncn2C1OC(COP(=O)(O)O)C(O)C1O (configuration not stated) [AMP] | 9.42 min
O=P(O)(O)OCC(O)CO (configuration not stated) [Glycerol-3-phosphate] | 10.4 min
NC(=O)C1=CN(C2OC(COP(=O)(O)OP(=O)(O)OCC3OC(n4cnc5c(N)ncnc54)C(O)C3O)C(O)C2O)C=CC1 (configuration not stated) [NADH] | 8.31 min
CC(C)(COP(=O)(O)OP(=O)(O)OCC1OC(n2cnc3c(N)ncnc32)C(O)C1OP(=O)(O)O)C(O)C(=O)NCCC(=O)NCCS (configuration not stated) [CoenzymeA] | 11.4 min
O=C(O)CC(O)(CC(=O)O)C(=O)O [Citric acid] | 14.3 min
NC(=O)CCC(N)C(=O)O (configuration not stated) [Glutamine] | 9.87 min
NC(=O)c1ccc[n+](C2OC(COP(=O)(O)OP(=O)(O)OCC3OC(n4cnc5c(N)ncnc54)C(O)C3O)C(O)C2O)c1 (configuration not stated) [NAD] | 9.95 min
CC(C)CC(N)C(=O)O (configuration not stated) [Leucine] | 6.46 min
C=C(OP(=O)(O)O)C(=O)O [PEP] | 13.1 min
O=P(O)(O)OCC1OC(O)C(O)C(O)C1O (configuration not stated) [Glucose-6-phosphate] | 12.3 min
C[N+](C)(C)CC(O)CC(=O)[O-] (configuration not stated) [Carnitine] | 10.1 min
Nc1ncnc2c1ncn2C1OC(COP(=O)(O)OP(=O)(O)OP(=O)(O)O)C(O)C1O (configuration not stated) [ATP] | 13.6 min
